The test system of series [1] is Zika virus. Nature of the series: Antiviral activity against ZIKV MR766NIID expressing GFP infected in african green monkey Vero E6 assessed as reduction in virus attachment to cell surface at 25 uM incubated for 1 hr by RT-qPCR analysis relative to control. The class given is functional. The arrangement: scale not given: the % may be the effect or the level left. For orientation: Real-time PCR tracks product formation cycle by cycle.

The test system of series [2] is Zika virus. Nature of the series: Antiviral activity against ZIKV MR766NIID expressing GFP infected in african green monkey Vero E6 assessed as reduction in viral replication measured after 24 hrs by flow cytometry assay. It counts as functional. The arrangement: scale not given: the % may be the effect or the level left. A general note: Flow cytometry measures light scatter and fluorescence of single cells or particles in a stream.

The subject of series [3] is Vero C1008. Nature of the series: Cytotoxicity against african green monkey Vero E6 cells assessed as cell viability at 100 uM incubated for 48 hrs by MTS assay. It counts as toxicity, cell-based. As to conditions: chlorocebus sabaeus, vero c1008, 48 h.
The test system of series [4] is Zika virus. Kind of series: Antiviral activity against ZIKV MR766NIID expressing GFP infected in african green monkey Vero E6 assessed as reduction in viral replication preincubated for 2 hrs and measured after 22 hrs by flow cytometry assay. It counts as functional, organism-based. The note with it: time 24.0 hrs.
The subject of series [5] is Zika virus. Kind of series: Antiviral activity against ZIKV MR766NIID expressing GFP infected in african green monkey Vero E6 assessed as reduction in viral replication incubated for 24 hrs by flow cytometry assay. It counts as functional, organism-based. As to conditions: for Activity: dose 0.3-100 µM.
Series [6] is described as follows: Cytotoxicity against african green monkey Vero E6 cells assessed as cell viability incubated for 48 hrs by MTS assay. It counts as toxicity, cell-based, Vero C1008. The note with it: African green monkey (Chlorocebus sabaeus). On the technique in general: Tetrazolium dyes change colour on reduction, which living cells bring about.
The subject of series [7] is Zika virus. Nature of the series: Antiviral activity against ZIKV MR766NIID expressing GFP infected in african green monkey Vero E6 assessed as neutralization of viral infection at 25 uM compound preincubated with virus for 2 hrs followed by 0.7 uM compound addition and measured after 2 hrs by flow cytometry analysis relative to control. The class given is functional, organism-based. As to conditions: time 4.0 hrs.

Series [8] in a line: Selectivity index, ratio of IC50 for cytotoxicity against african green monkey Vero E6 cells to IC50 for ZIKV MR766NIID expressing GFP infected in african green monkey. The class given is toxicity, cell-based. As to conditions: read-out: Ratio IC50.
Series [9] concerns Zika virus. Nature of the series: Antiviral activity against ZIKV MR766NIID expressing GFP infected in african green monkey Vero E6 assessed as reduction in viral replication at 50 uM incubated for 24 hrs by flow cytometry assay relative to control. The class given is functional. The arrangement: scale not given: the % may be the effect or the level left.

pIC50: −log10 of the molar value. The source made the active and inactive calls. No cut-off for these calls is given here. Bounds are passed on as bounds.

Regarding `CCCCCCCCCCCCCCCCCC(=O)O[C@H]1[C@@H](O[C@H](CO)C(=O)O)O[C@H](CO)[C@@H](O)[C@@H]1OC(=O)C(C)C`, the Activity was 90% in [1]; 100% in series [2]; “Non-toxic” in series [3]; “Dose-dependent-effect” in series [5]; 100% in series [9]. In addition, the outcome in [4] was inactive. In [5] (Vero C1008, 24 h), the pIC50 – broadly, the IC50 on a negative log10 scale, so that one unit is a factor of ten – is 4.98. The IC50 (commonly the midpoint of a concentration-inhibition curve) at 48 h in series [6] was greater than 100 µM. Also, the outcome in [7] was Active. The selectivity ratio in series [8] was greater than 10.
With `CCCCCCCCCCCCCCC(=O)O[C@H]1[C@@H](O[C@H](CO)C(=O)O)O[C@H](CO)[C@@H](O)[C@@H]1O`, the Activity result in series [3] is “Non-toxic”. For the same compound, the outcome in [5] was inactive. In addition, in series [6], the half-inhibitory concentration (IC50) at 48 h is greater than 100 µM.

The values are drawn from ChEMBL document CHEMBL6153108, “Otitiglycomycins A and B: Glycolipids from the Strain Nocardia otitidiscavarum 20S-13 with Antiviral Activity against Zika Virus” (J Nat Prod, 2025).
